Assay results: patent US20220169680A1 (priority 2018, published 2022)
Entries after “also recorded” stand apart in the source; their conditions may differ.

Tests used:
HEK293T cells = type: cell-based
A549 cells [1] = type: cell-based
[2] = tested on: LPS-induced acute lung injury in mice; parameters: species or system C57 BL/6 male mice; settings: mouse, in vivo
A549 cells [3] = type: cell-based; remark: listed apart in the source
[4] = tested on: 293T cell, HUVEC cell, HCT-116 cell, MKN-45 cell, MRCS cell, U397 cell and ESF-1 cell; type: cell-based
[5] = tested on: poly(I:C)-induced acute lung injury mouse model; parameters: species or system C57 BL/6 male mice; settings: in vivo
[6] = tested on: 3′ UTR region of RELA gene; type: cell-based
A549 cells [7] = type: cell-based; remark: listed apart in the source
[8] = tested on: LPS-induced acute lung injury in mice; parameters: species or system C57 BL/6 male mice; settings: mouse, in vivo; remark: listed apart in the source
A549 cells [9] = type: cell-based; remark: listed apart in the source
MRCS cells = type: cell-based
HeLa cells = type: cell-based
A549 cells [10] = type: cell-based; remark: listed apart in the source
murine organs = tested on: murine organs; parameters: species or system C57 BL/6 male mice; settings: mouse, in vivo
[11] = tested on: 3′ UTR region of COLLAGEN3A1 gene; type: cell-based
[12] = tested on: LPS-induced acute lung injury in mice; settings: mouse, in vivo; cited from earlier work

Compound: DRLFFKCIYRRLKYGLKR [Jilin-2004(H5N1)-M2-44-61]
- carrying NS1-GFP plasmid into cells and GFP expression (HEK293T cells): could carry NS1-GFP plasmid into HEK293 cells, and GFP protein was expressed in the nucleus
- carrying Cy3-labeled small RNA into cells (A549 cells [1]): can carry small RNA into cells
- effect compared with transfection reagent RNAiMax (A549 cells [1]): stronger than that of the transfection reagent RNAiMax
- effect on preventing lung injury (IL-6 in alveolar lavage fluid) [2]: had no effect on preventing lung injury
- ability to carry small RNA into cells compared with the transfection reagent RNAiMax group, qPCR (A549 cells [3]): stronger than the transfection reagent RNAiMax group
- ability to carry small RNA into cells, qPCR (A549 cells [3]): all had the ability to carry small RNA into cells
- rank of ability to carry small RNA in the cell experiments (A549 cells [3]): the strongest ability to carry small RNA in the cell experiments
- entry effect compared with other fragments in different cell lines [4]: even better entry effects
- ability to carry small RNA in murine organs compared with TAT [5]: stronger than that of TAT
- ability to carry PGY-dsRNA-6 compared with positive control TAT [6]: stronger than that of the positive control TAT
- carrying PGY-dsRNA-6 into cells and fulfilling its function (luciferase reporter) [6]: could all carry PGY-dsRNA-6 into cells and fulfill its function
- cell-penetrating peptide effect compared with transfection reagent RNAiMax [6]: close to the transfection reagent RNAiMax
- amount of cell entry versus incubation duration (A549 cells [7]): increased as the incubation duration increased
- cell entry (A549 cells [7]): entered A549 cells
- cell entry after 5 min incubation (A549 cells [7]): cell entry could be detected; also recorded: the entry into the cell was observed
- cell entry at 30 min (A549 cells [7]): had a strong entry effect
- cell entry at lower concentrations (A549 cells [7]): could still enter A549 cells
- cell entry effect compared with TAT at the same time points (A549 cells [7]): much stronger than that of the positive control TAT polypeptide
- cell entry effect compared with TAT positive control (A549 cells [7]): stronger than that of the TAT polypeptide
- cell entry effect compared with existing cell-penetrating peptides (Table 4) (A549 cells [7]): significantly better cell entry effects than existing cell-penetrating peptides
- cell entry effect compared with the other three penetrating polypeptides (A549 cells [7]): even better cell entry effect
- cell-penetrating peptide function compared with positive control TAT (A549 cells [7]): stronger than that of the positive control TAT
- difference in entry effects between 1 h, 3 h and 6 h (A549 cells [7]): little difference in entry effects
- entry effect compared with other C-terminally truncated polypeptides (A549 cells [7]): even better entry effects than other polypeptides
- entry of miR1246 antagomir into lung tissue of mice [8]: could improve the entry of miR1246 antagomir into lung tissue of mice
- carrying Cy3-labeled small RNA into cells (super high resolution microscope) (A549 cells [9]): can carry Cy3-labeled small RNA into A549 cells
- effect compared with RNAiMax or TAT (super high resolution microscope) (A549 cells [9]): stronger than that of the transfection reagent RNAiMax or of TAT
- cell penetration properties (MRCS cells): consistent with the results obtained using A549 cells
- cell penetration properties (HeLa cells): consistent with the results obtained using A549 cells
- ability to carry FAM-labeled small RNA compared with transfection reagent RNAiMax (A549 cells [10]): stronger than that of the transfection reagent RNAiMax
- ability to carry small RNA compared with TAT at the same concentration (A549 cells [10]): significantly stronger
- carrying FAM-labeled small RNA into cells (A549 cells [10]): can all carry small RNA into cells
- ability to deliver small RNA compared with TAT (murine organs): significantly stronger than that of TAT
- murine organs or tissues in which small RNA was detected (murine organs): detected in 8 murine organs or tissues, including heart, liver, spleen, lung, kidney, stomach, small intestine and thymus
- delivery of small RNAs to murine organs (murine organs; ip): could effectively deliver small RNAs (PGY-sRNA-23 and PGY-sRNA-26) to murine organs
- ability to carry HJT-sRNA-m7 compared with positive control TAT [11]: stronger than that of the positive control TAT
- carrying HJT-sRNA-m7 into cells and fulfilling its function (luciferase reporter) [11]: could carry HJT-sRNA-m7 into cells and fulfill its function
- cell-penetrating peptide effect compared with transfection reagent RNAiMax [11]: close to the transfection reagent RNAiMax

Compound: COc1cc(C2Oc3cc([C@H]4Oc5cc(O)cc(O)c5C(=O)[C@@H]4O)ccc3OC2CO)ccc1O (stereo partly shown) [silybin, reference compound]
- effect on preventing lung injury (IL-6 in alveolar lavage fluid) [2]: had a tendency to prevent lung injury at this dose
- effect on LPS-induced acute lung injury in mice [12]: can effectively reduce the LPS-induced acute lung injury in mice
